Source: US20040102485A1, “Tartrate salt of thiazolidinedione derivative” (priority 2003, published 2004)

Assay: Solid state stability of the Meso-Tartrate (storage in glass bottle, HPLC assay for final content and degradation products)
Type: physicochemical
Conditions: 1 month
Protocol: Solid State Stability of the Meso-Tartrate, recorded for the product of Example 1 The solid state stability of the drug substance was determined by storing approximately 1.0 g of the material in a glass bottle at i) 40° C./75% Relative Humidity (RH), open exposure, for 1 month and b) at 50° C., closed, for 1 month. The material was assayed by HPLC for final content and degradation products in both cases.

[1] = 40° C./75% Relative Humidity (RH), open exposure

CN(CCOc1ccc(CC2SC(=O)NC2=O)cc1)c1ccccn1.O=C(O)C(O)C(O)C(=O)O (stereo not drawn) [Example 1, 5-[4-[2-(N-methyl-N-(2-pyridyl)amino)ethoxy]benzyl]thiazolidine-2,4-dione Meso-Tartrate]
HPLC assay (final content) [1]: 97 % initial | degradation (HPLC, degradation products) [1]: No significant degradation observed | HPLC assay (final content) (50° C., closed): 98 % initial | degradation (HPLC, degradation products) (50° C., closed): No significant degradation observed
